Experimental data: PubChem BioAssay AID200 (DTP/NCI, 2004)
“And” between values parts separate entries of the source, which are not always exact repeats. Identical values can stand only once. Inconclusive results and toxic doses are left out. Where a SMILES comes first, the peptide text is derived from it.

Tested on: B6C3F1 mice, B16 melanoma ip, median survival T/C
Assay: NCI In Vivo Anticancer Drug Screen. Data for tumor model B16 Melanoma (intraperitoneal) in B6C3F1 mice
Details: endpoint: median survival time, schedule: Q01DX009 (ip), higher = longer survival
In short: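 Tumor-bearing mice received test compound; a separate group got vehicle only. Survival was then compared, with results reported as treated over control.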

[1] = dose: 12.5 mg/kg/injection, vehicle: Klucel (hydroxypropylcellulose) (HPC)
[2] = dose: 25.0 mg/kg/injection, vehicle: Klucel (hydroxypropylcellulose) (HPC)
[3] = dose: 50.0 mg/kg/injection, vehicle: Klucel (hydroxypropylcellulose) (HPC)
[4] = dose: 100.0 mg/kg/injection, vehicle: Klucel (hydroxypropylcellulose) (HPC)
[5] = dose: 200.0 mg/kg/injection, vehicle: Klucel (hydroxypropylcellulose) (HPC)
[6] = dose: 400.0 mg/kg/injection, vehicle: Klucel (hydroxypropylcellulose) (HPC)
[7] = dose: 3.12 mg/kg/injection, vehicle: saline with Tween-80
[8] = dose: 6.25 mg/kg/injection, vehicle: saline with Tween-80
[9] = dose: 6.25 mg/kg/injection, vehicle: saline
[10] = dose: 12.5 mg/kg/injection, vehicle: saline with Tween-80
[11] = dose: 12.5 mg/kg/injection, vehicle: saline
[12] = dose: 25.0 mg/kg/injection, vehicle: saline
[13] = dose: 0.5 mg/kg/injection, vehicle: saline
[14] = dose: 1.0 mg/kg/injection, vehicle: saline
[15] = dose: 25.0 mg/kg/injection, vehicle: saline with Tween-80
[16] = dose: 50.0 mg/kg/injection, vehicle: saline with Tween-80
[17] = dose: 100.0 mg/kg/injection, vehicle: saline with Tween-80
[18] = dose: 200.0 mg/kg/injection, vehicle: saline with Tween-80

CSc1nc(=O)[nH]nc1SCc1ccccc1
T/C [1]: 105 % of control | T/C [2]: 104 % of control | T/C [3]: 104 % of control | T/C [4]: 107 % of control | T/C [5]: 96 % of control | T/C [6]: 115 % of control

O=NNc1ncc(Br)cc1Br
T/C (dose: 6.25 mg/kg/injection, vehicle: water): 108 % of control | T/C (dose: 12.5 mg/kg/injection, vehicle: water): 114 % of control | T/C (dose: 25.0 mg/kg/injection, vehicle: water): 110 % of control | T/C (dose: 100.0 mg/kg/injection, vehicle: water): 98 % of control

Oc1cc(O)cc(/C=C/c2ccc(O)c(O)c2)c1
T/C (dose: 6.25 mg/kg/injection, vehicle: DMSO): 118 % of control | T/C (dose: 12.5 mg/kg/injection, vehicle: DMSO): 111 % of control | T/C (dose: 50.0 mg/kg/injection, vehicle: DMSO): 117 % of control | T/C (dose: 100.0 mg/kg/injection, vehicle: DMSO): 113 % of control and 96 % of control

CC1=C(C)C(=O)O[C@@H]([C@](C)(O)[C@]2(O)CC[C@@]3(O)[C@@H]4C[C@H]5O[C@]56CC=CC(=O)[C@]6(C)[C@H]4CC[C@]23C)C1
T/C (dose: 1.56 mg/kg/injection, vehicle: saline with Tween-80): 121 % of control | T/C [7]: 108 % of control | T/C [8]: 120 % of control | T/C [9]: 120 % of control | T/C [10]: 88 % of control | T/C [11]: 153 % of control | T/C [12]: 175 % of control

Oc1c(Cl)cc(Cl)cc1C=NCCSc1ccc(Cl)cc1
T/C [2]: 98 % of control and 102 % of control | T/C [3]: 92 % of control and 102 % of control | T/C [4]: 113 % of control and 93 % of control | T/C [5]: 92 % of control and 103 % of control

COc1cccc2c1C(=O)c1c(O)c3c(c(O)c1C2=O)C[C@@](O)(C(=O)CO)C[C@@H]3OC1CC(N(C)C)C(O)C(C)O1 (stereo partly specified)
T/C (dose: 0.12 mg/kg/injection, vehicle: saline): 100 % of control | T/C [13]: 152 % of control and 166 % of control | T/C [14]: 153 % of control and 205 % of control | T/C (dose: 2.0 mg/kg/injection, vehicle: saline): 172 % of control and 261 % of control

CN1CCN(Cc2nc3cccc4c3c([n+]2[O-])-c2ccccc2-4)CC1
T/C [10]: 98 % of control | T/C [15]: 99 % of control | T/C [16]: 110 % of control | T/C [17]: 106 % of control | T/C [18]: 120 % of control

COc1cc(OC)c(NC(=O)ON2C(=O)c3ccccc3C2=O)cc1Cl
T/C [7]: 98 % of control | T/C [8]: 104 % of control | T/C [10]: 104 % of control | T/C [15]: 96 % of control | T/C [16]: 87 % of control

COc1cc([C@@H]2c3cc4c(cc3[C@@H](OC3OC5CO[C@@H](c6cccs6)OC5C(O)C3O)[C@H]3COC(=O)[C@H]23)OCO4)cc(OC)c1O (stereo partly specified)
T/C (dose: 0.25 mg/kg/injection, vehicle: saline): 110 % of control | T/C [13]: 123 % of control | T/C [14]: 122 % of control | T/C (dose: 4.0 mg/kg/injection, vehicle: saline): 162 % of control

O=C1CC2(C(=O)N1CN1CCOCC1)c1ccccc1-c1ccccc12
T/C [4]: 93 % of control | T/C [5]: 98 % of control | T/C [6]: 93 % of control

O=c1ccn(C2OC(CO)C(O)C2O)c(=O)[nH]1 (stereo unspecified)
T/C [1]: 97 % of control | T/C [2]: 99 % of control | T/C [3]: 104 % of control | T/C [4]: 95 % of control | T/C [5]: 99 % of control | T/C [6]: 102 % of control | T/C (dose: 800.0 mg/kg/injection, vehicle: Klucel (hydroxypropylcellulose) (HPC)): 102 % of control

Cc1ccc(C)c2c1CCC2C (stereo unspecified)
T/C [16]: 93 % of control | T/C [17]: 86 % of control

NCC(=O)NC(CC(N)=O)C(=O)O (stereo unspecified) (HELM PEPTIDE1{G.[NC(=O)CC(N[*:1])C(=O)O]}$$$$V2.0)
T/C (dose: 50.0 mg/kg/injection, vehicle: saline): 98 % of control | T/C (dose: 100.0 mg/kg/injection, vehicle: saline): 91 % of control | T/C (dose: 200.0 mg/kg/injection, vehicle: saline): 93 % of control

CCC(C(=O)O)C(=O)O.[NH-]CC1CCCC[N-]1.[Pt+2]
T/C [9]: 108 % of control | T/C [11]: 102 % of control | T/C (dose: 12.5 mg/kg/injection, vehicle: suspension in saline): 113 % of control | T/C [12]: 101 % of control | T/C (dose: 25.0 mg/kg/injection, vehicle: suspension in saline): 115 % of control | T/C (dose: 50.0 mg/kg/injection, vehicle: suspension in saline): 123 % of control

COC(COC(=O)N1CCN(C=O)CC1)C1=C(N2CC2)C(=O)C(C)=C(N2CC2)C1=O (stereo unspecified)
T/C (dose: 1.5 mg/kg/injection, vehicle: saline): 160 % of control and 194 % of control | T/C (dose: 3.0 mg/kg/injection, vehicle: saline): 173 % of control and 234 % of control | T/C (dose: 6.0 mg/kg/injection, vehicle: saline): 254 % of control

CCC(C)C(NC(=O)OCC1c2ccccc2-c2ccccc21)C(=O)O (stereo unspecified)
T/C [4]: 101 % of control and 102 % of control | T/C [5]: 98 % of control and 100 % of control

C[C@]12CCC(=O)C(O)=C1CC[C@@H]1[C@@H]2CC[C@]2(C)C(=O)CC[C@@H]12
T/C [1]: 88 % of control and 95 % of control | T/C [2]: 97 % of control | T/C [3]: 97 % of control and 102 % of control | T/C [4]: 92 % of control and 98 % of control | T/C [5]: 94 % of control and 95 % of control | T/C [6]: 87 % of control and 93 % of control

O=C(CO)c1ccc([N+](=O)[O-])cc1
T/C [7]: 113 % of control | T/C [8]: 94 % of control | T/C [15]: 105 % of control | T/C [16]: 100 % of control | T/C [17]: 93 % of control

CCOC(=O)C1(c2ccccc2)C(=O)Oc2ccccc21 (stereo unspecified)
T/C [10]: 99 % of control and 100 % of control | T/C [15]: 101 % of control and 102 % of control | T/C [16]: 95 % of control and 105 % of control | T/C [17]: 93 % of control and 95 % of control | T/C [18]: 93 % of control and 100 % of control | T/C (dose: 400.0 mg/kg/injection, vehicle: saline with Tween-80): 91 % of control
